Measurements as given in US5260189A, “Synthetic HIV-like peptides their compositions and uses” (Immunodiagnostics, Inc., priority 1992, dated 1993).
“Also recorded” adds a separate entry of the source.

What was measured:
antibodies to HIV-1 [1] = assay: EIA of peptide-protein conjugates coated on polystyrene microtiter plates, human sera; assay type: binding
Method: (§1) The free peptides or peptide-protein conjugates of FIGS. 1-13 were initially screened for immunoreactivity by coating each well of polystyrene microtiter EIA plates (Costar, Cambridge, Mass., U.S.A.) with 0.2 ml amounts of concentrations of 5-50 micrograms/ml peptide in Tris buffer, 10 mM, pH 8.0, at 4° C. overnight. Peptides or peptide-protein conjugates showing immunoreactivity by EIA were then further diluted for coating to determine the minimal concentrations required that allowed maximal immunoreactivity with antibodies to HIV, and minimal nonspecific reactivity with normal sera. The EIA tests were performed as follows: The coating solution was removed from each well and the wells were blocked at 37° C. for 30 minutes with a solution of 50 mM phosphate, 100 mM NaCl, pH 7.4, 1% BSA, 0.5% gelatin. The wells were then aspirated dry with a microtiter plate washer and washed 3 times with a solution of 50 mM phosphate, 100 mM NaCl, 0.05% Tween 20, pH 7.4 (PBST). A 1:101 dilution (in PBST with 1% BSA, 1% NRS) of the primate serum to be tested was then added as 0.2 ml to each washed well and the plates were incubated at 37° C. for 30 minutes. The plates were then washed×3 with PBST, and 0.2 ml amounts of a 1:2000 dilution of goat anti-human (GAH) peroxidase enzyme conjugate (Organon Teknika, Cappel, Melvern, Pa., U.S.A.) that recognized human IgG, IgA, and IgM were added to each well, and the plates were incubated for 30 minutes at 37° C. The plates were then washed×3 with PBST and incubated with 0.2 ml/well substrate consisting of 0.1M citric acid pH 5.2, 0.1 mg/ml o-phenylene diamine, 0.01% H2 O2, at room temperature in the dark for 10 minutes. Reactions were stopped with 50 microliters of 4N H2 SO4, and the color development was quantitated in a Multiscan plate reader at A492. In each series of experiments positive and negative controls were included, and all tests were done in duplicate or quadruplicate. Most peptides and peptide conjugates were initially screened against a 1:101 dilution of pools of HIV positive or HIV negative sera, and the same serum pool was used to allow quantitative comparison of immunoreactivity of different free peptides or peptide-protein conjugates.
(§2) The peptides in FIGS. 1 and 5 were synthesized as described in Example 1 and conjugated to KLH or BSA as described in Example 2. These peptide-protein conjugates were coated to polystyrene microtiter plates all at a concentration 10 micrograms peptide/ml and evaluated for immunoreactivity as described in Example 3, using a 1:101 dilution of a pool of sera (HIV+/SIV+, respectively) containing antibodies to HIV-1 (FIG. 1) or to HIV-2 (FIG. 5), as well as pooled serum (HIV-/SIV-, respectively) containing no antibodies to HIV-1 or HIV-2. […] Since sera from patients infected with HIV-2 are relatively unavailable in the United States, the immunoreactivity of HIV-2 synthetic peptides was assessed using serum from macaques infected with SIV, obtained from the University of Washington Primate Center, Seattle, Wash., U.S.A. The AA sequence of SIV is nearly identical to HIV-2 in the region of the peptides synthesized (see Myers et al., Human Retroviruses and AIDS, 1988. A compilation of nucleic acid and amino acid sequences. Los Alamos National Laboratory, Los Alamos, N. Mex., 87545, USA).

antibodies to HIV-1 [2] = assay: Rapid HIV-1 EIA with peptide reagents immobilized on latex in rapid test device; assay type: binding, human; settings: passive adsorption
Method: A test device for performing rapid tests in less than 15 minutes was prepared as illustrated in FIGS. 14 and 15. Referring to FIGS. 14 and 15, the device comprises a plastic slide 10 (approximately 1 inch wide by 3/16 inch thick by 31/4 inches long) having a plurality of funnel-like wells 12, each having a capacity of approximately 200 microliters, an upper inflow tract rim 14 diameter of approximately 9 mm and a lower outflow tract 16 diameter of approximately 2 mm. The undersurface of the outflow tract 16 is designed so as to provide a smooth even contact with a membrane filter 18 placed next to it in the apparatus. The membrane filter separates reactants passing through it by size, retaining those particles above a predetermined size, such as above 0.22 microns, or above 0.45 microns in size (depending upon the specific filter chosen), through other filters placed into the apparatus might separate by binding or affinity (i.e. nitrocellulose, glass). […]
The mixture was shaken gently a room temperature for 1 hour, and then washed 3 times by centrifugation at 9,000×g for 10 minutes, removal of supernate, and resuspension of the pellet in a 12-14 ml volume of deionized water, pH 4.5. […] It was determined that this stock solution of latex coated with peptide-BSA conjugate could be diluted 1:10-1:30 with latex diluent buffer for use in the rapid EIA described below. […]

antibodies to HIV-2 = assay: Rapid EIA with latex reagents to detect antibodies to HIV-2; assay type: binding
Method: A 125 microliter volume of 10% latex was added to a 375 microliter volume of deionized water, and mixed with an equal volume (0.5 ml) of 1M carbodiimide, pH 4.5. The mixture was shaken gently a room temperature for 1 hour, and then washed 3 times by centrifugation at 9,000×g for 10 minutes, removal of supernate, and resuspension of the pellet in a 12-14 ml volume of deionized water, pH 4.5. The free peptides at 1 mg/ml concentration (500 micrograms/ml of each peptide 4S36 and 5S70), or the peptide-BSA conjugate of peptides 4S36 and 5S70 at 500 micrograms/ml were added to the final washed activated latex pellet (1 ml volume of peptide containing solution per 125 microliters original volume of latex). […] It was determined that this stock solution of latex coated with peptide-BSA conjugate could be diluted 1:10-1:30 with latex diluent buffer for use in the rapid EIA described below.
Serum specimens were diluted 1:8 for the rapid EIA in a serum diluent buffer consisting of 0.03M Tris, pH 8 containing 0.8% NaCl, 0.05% NaN3, 0.05% Triton x-100. […] The reaction was stopped after 3-4 minutes by adding a drop of 4N H2 SO4, and the test device could be retained as a permanent record of positive (blue-purple color) or negative (white membrane) until the results were recorded. […]

antibodies to SIV/HIV-2 = assay: EIA of peptide-protein conjugates coated on polystyrene microtiter plates, macaque sera; assay type: binding, rhesus macaque (Macaca mulatta)
From the text: For all of the immunoassays employing human serum, the serum samples were obtained from the King County Health Department, Seattle, Wash., U.S.A., and each serum had been characterized as positive or negative with respect to antibodies to HIV-1, as determined by testing with the commercially licensed Genetic Systems and or DuPont EIA tests. Serum from rhesus macaque monkeys (Macaca mulatta) was obtained from the University of Washington, Seattle, Wash., U.S.A., and had been characterized by a SIV whole virus lysate EIA as either containing or not containing antibodies to SIV which is nearly identical in sequence to HIV-2 in the region of the peptide epitopes studied.
as §1, §2

Row | Sequence | reactivity with sera not containing antibodies to HIV-1 (FIGS. 10C, 11) (antibodies to HIV-1 [1]; BSA-SMCC conjugate, 85-87 negative human sera) | number of positive samples giving A492 less than 1.0 (antibodies to HIV-1 [1]; BSA-SMCC conjugate, 98 positive human sera (FIGS. 11A, 11B)) | positive/negative ratios (FIG. 9) (antibodies to HIV-1 [1]; BSA-peptide conjugate, polystyrene plastic type 1 (low reactivity with normal human sera)) | performance of free peptide passively adsorbed to latex (antibodies to HIV-1 [2]) | discrimination of HIV-2+ from HIV-2- serum samples, rapid EIA (antibodies to HIV-2) | immunoreactivity with SIV/HIV-2 antibodies (FIG. 5) (antibodies to SIV/HIV-2; C-terminal BSA-SMCC conjugates, 10 micrograms peptide/ml coating, 1:101 dilution of pooled SIV+ / SIV- macaque sera) | discrimination of positive from negative macaque sera (FIG. 7) (antibodies to SIV/HIV-2; peptide-BSA conjugates)
1 | VWGCSGKLICTTAVPGC [4S36, unnatural variant of HIV-1 gp41 peptide 2S09] | acceptably low | none | ≥ 20 | produced an immunoreactive reagent | – | – | –
2 | ARLNSWGCAFRQVCHGC [2S25] | – | – | – | – | capable of discriminating | Significant immunoreactivity; also recorded: best immunoreactivity; also recorded: maximally immunoreactive | most favorable performances
